Measurements reported in PubChem BioAssay (NCI).
Where “and” joins values, the source holds several entries; their conditions need not be identical. Identical values can stand only once.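 A five-concentration, 48-hour dose response in 96-well plates underlies each endpoint, interpolated linearly between surrounding concentrations. GI50 is the concentration that inhibits growth by half. Definition used: TGI = concentration required for complete inhibition of growth.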

What was measured:
Assay in all cases: inhibition of tumour cell growth, NCI panel, 48 h
[1] = tested on: SNB-19 CNS
[2] = tested on: HOP-92 NSCLC
[3] = tested on: MALME-3M melanoma
[4] = tested on: EKVX NSCLC
[5] = tested on: CAKI-1 renal
[6] = tested on: SF-539 CNS
[7] = tested on: 786-0 renal
[8] = tested on: MOLT-4 leukemia
[9] = tested on: T-47D breast
[10] = tested on: NCI/ADR-RES ovarian

Row | Compound | GI50 [1] | TGI [1] | GI50 [2] | TGI [2] | GI50 [3] | TGI [3] | GI50 [4] | TGI [4] | GI50 [5] | TGI [5] | GI50 [6] | TGI [6] | GI50 [7] | TGI [7] | GI50 [8] | TGI [8] | GI50 [9] | TGI [9] | GI50 [10] | TGI [10]
1 | COc1ccc(/C(=N/O)c2cc(OC)c(OC)c(OC)c2)c(OC)c1N | 5.32 µM | > 100 µM | > 100 µM | > 100 µM | 4.22 µM | > 100 µM | 6.64 µM | > 100 µM | 5.53 µM | > 100 µM | 2.98 µM | > 100 µM | 12.7 µM | > 100 µM | 6.94 µM | > 100 µM | 26.2 µM | > 100 µM |  | 
2 | O=S(=O)(NCCO)c1cc[c]([Sb](=[O])([OH])[OH])cc1 | > 100 µM | > 100 µM | > 100 µM | > 100 µM | > 100 µM | > 100 µM | > 100 µM | > 100 µM | > 100 µM | > 100 µM |  |  | > 100 µM | > 100 µM | > 100 µM | > 100 µM | > 100 µM | > 100 µM | > 100 µM | > 100 µM
3 | CNCCCn1c2c(c3ccc(F)cc3c1=O)C(=O)c1cc(OC)cnc1-2 | 0.216 µM | 1.78 µM | 0.371 µM | 3.15 µM | 0.318 µM | 1.55 µM | 0.301 µM | 1.96 µM |  |  | 0.368 µM | 1.36 µM | 0.195 µM | 0.658 µM | 0.0379 µM | 0.318 µM | 0.16 µM | 0.704 µM | 0.431 µM | 9.51 µM
4 | CC(C)(C)N=CN(C=C(c1ccccc1)c1ccccc1)C1CCCCC1 |  | > 100 µM |  | 82.4 µM |  | 35.8 µM |  | > 100 µM |  | > 100 µM |  | > 100 µM |  | > 100 µM |  |  |  |  |  | 
5 | CC(=O)c1cccc(NC(=O)c2ccc(NC3=C(Cl)C(=O)N(Cc4ccccc4)C3=O)cc2)c1 | 32.8 µM | > 100 µM | 6.45 µM | 22.8 µM |  |  | 30.3 µM | 97.3 µM | 1.61 µM | 3.05 µM | 11.4 µM | 28.7 µM | 16.5 µM | 36.4 µM | 2.21 µM | > 100 µM | 25.1 µM | > 100 µM | 30.8 µM | > 100 µM
6 | CC/C=C\C[C@H](O)C/C=C1/C(=O)C=C[C@@H]1C/C=C\CCCC(=O)NC | 6.91 µM | 20.9 µM | 3.3 µM | 6.66 µM | 1.94 µM | 4.65 µM | 3.71 µM | 15.2 µM | 1.38 µM | 4.08 µM |  |  | 1.81 µM | 3.6 µM | 2.4 µM | 11.3 µM | 2.32 µM | 12.5 µM | 2.5 µM | 10.5 µM
7 | CN(C)CCOc1ccc(-c2cc(-c3ccc4c(c3)CC/C4=N\O)c(-c3ccncc3)o2)cc1 | 4.68 µM | 8.6 µM |  |  | 0.0245 µM | 0.179 µM | 3.93 µM | 8.07 µM | 4.19 µM | 8.71 µM | 3.64 µM | 7.41 µM | 3.55 µM | 7.75 µM | 3.86 µM | 10.3 µM | 4.66 µM | 9.62 µM | 5.05 µM | 11 µM
8 | Cc1cnc(SCCN2CCN(C)CC2)nc1-c1cc2ccccc2s1 |  |  |  | 18.3 µM |  | 31.6 µM |  |  |  | 16.4 µM |  | 25.1 µM |  | 24.3 µM |  | 7.5 µM |  |  |  | 
9 | Cc1cc2c(cc1C)[n+](Cc1ccc3ccccc3n1)cn2Cc1ccc2ccccc2n1 | 0.91 µM | 2.36 µM | 0.484 µM | 2 µM | 0.783 µM | 2.56 µM | 2.29 µM | 11.1 µM |  |  | 0.899 µM | 2.53 µM | 1.54 µM | 3.03 µM | 1.46 µM | 5.15 µM | 0.393 µM | 2.93 µM | 16.7 µM | 50.9 µM
10 | O=C1CCC2(c3ccccc3)Nc3ccc(Cl)cc3N12 (stereo not given) |  |  |  | > 100 µM |  | > 100 µM |  | > 100 µM |  | > 100 µM |  | > 100 µM |  | > 100 µM |  | > 100 µM |  |  |  | 
11 | CCCCCCCCCCCCCCNCC(OCC)OCC |  | 31.8 µM |  | 26.4 µM |  | 32 µM |  | 34.7 µM |  |  |  | 29.7 µM |  | 33 µM |  |  |  |  |  | 
12 | COc1ccc(C#CC2=C(c3cc(OC)c(OC)c(OC)c3)C(=O)OC2)cc1 | 5.98 µM | > 50 µM |  |  |  |  | 13.7 µM | 41.8 µM | 1.18 µM | 2.99 µM | 1.29 µM | 3.26 µM | 4.94 µM | > 50 µM | 1.1 µM | > 50 µM |  |  | 5.82 µM | 27.9 µM
13 | C/C=C1\CCC2c3[nH]c4ccccc4c3CCN2C1 (stereo not given) |  | > 100 µM |  | 99.7 µM |  | > 100 µM |  | > 100 µM |  | > 100 µM |  | > 100 µM |  | > 100 µM |  | > 100 µM |  |  |  | 
14 | CCCCN1CCN(c2ccc3nc(-c4ccc5nc(-c6ccc(OCC)c(OCC)c6)[nH]c5c4)[nH]c3c2)CC1 | 1.22 µM | 2.61 µM | 1.23 µM | 3.17 µM |  |  |  |  | 1.04 µM | 2.52 µM | 1.26 µM | 2.56 µM | 1.41 µM | 2.84 µM | 1.22 µM | 3.86 µM | 1.36 µM | 7.88 µM | > 100 µM | > 100 µM
15 | O=C(NC(=O)c1cc2cc(Br)cc(Br)c2oc1=O)Oc1ccccc1 |  | > 100 µM |  | > 100 µM |  | > 100 µM |  | > 100 µM |  | > 100 µM |  | > 100 µM |  | > 100 µM |  | > 100 µM |  |  |  | 
16 | Cc1ccc(C(=O)N=Nc2c(O)[nH]c3ccc(Cl)cc23)cc1 | 45.6 µM | > 50 µM |  |  |  |  | > 50 µM | > 50 µM | 16.1 µM | 45.3 µM | > 50 µM | > 50 µM | > 50 µM | > 50 µM | 3.2 µM | > 50 µM |  |  | > 50 µM | > 50 µM
17 | O=C1N[C@H]2[C@H](O)[C@H](O)[C@@H](O)[C@H](O)[C@@H]2c2cc3c(c(O)c21)OCO3 | 0.172 µM and 0.125 µM | 0.939 µM and 0.197 µM | 0.333 µM |  | 0.266 µM and 0.275 µM |  |  |  | 0.682 µM |  |  |  | 0.324 µM and 0.0396 µM |  | 0.196 µM and 0.575 µM |  |  | 0.155 µM | 0.0241 µM | 0.189 µM and 0.523 µM
18 | CC/C(CC(=O)CCC(=O)Nc1ccc(C)c(C)c1)=N\NC(=O)C(N)=O |  | > 100 µM |  | > 100 µM |  | > 100 µM |  | > 100 µM |  | > 100 µM |  | > 100 µM |  | > 100 µM |  | > 100 µM |  |  |  | 
